Values of other authors as cited in PMC10499419 (Clinical and Translational Science, 2023).

Tested on: healthy subjects

SMILES: CN1C(=O)[C@@H](NC(=O)c2nnc(Cc3ccccc3)[nH]2)COc2ccccc21 [GSK2982772]
- Tolerability in healthy subjects: well‐tolerated
